From US11713297B2, “Crystalline form of N-butyldeoxygalactonojirimycin” (IDORSIA PHARMACEUTICALS LTD, priority 2017, dated 2023)

What was measured:
[1] = Particle size distribution (PSD) by laser diffraction, wet dispersion; type: physicochemical; details: crystalline form 1; average of at least five crystallization batches, each measured in triplicate
Description: Particle size distributions are defined herein as D10, D50 and D90. D10, D50 and D90 represent the particle diameter corresponding to the respective percentage in volume (i.e. 10%, 50%, 90%) of a given sample which is below the indicated diameter. For example, a D50 from about 70 μm to about 150 μm means that 50% of the volume of a given sample has a diameter which is equal or below a diameter that is in the range between about 70 μm and about 150 μm. Particle size distributions may be determined using standard procedures such as laser diffraction.
Particle Size Distribution (PSD)
PSD measurements were performed by laser-diffraction using a wet dispersion method. Data were collected on a Mastersizer 2000 (Malvern) equipped with a dispersion unit Hydro 2000S in the size range from 0.020 μm to 2000.000 μm. Typically, about 100 mg sample in about 20 ml Tegiloxan 3 (silicon oil, CAS Nr. 9016-00-6) is dispersed in an ultrasonic bad for about 30 s and subsequently added to a prefilled with Tegiloxan 3 dispersion unit until obscuration of about 10% to about 30% is achieved. After a circulation time of 5 min, a sample measurement is performed. Reported particle size values (D10, D50 and D90) represent an average value of 3 measurements.
Particle size measurements of COMPOUND in crystalline form 1 as obtained in Examples 1, 2 and Reference Example 3 are performed using the method described herein. Each data point in Table 3 represents an average value obtained from at least five separate crystallization batches, each measured in triplicate.

[2] = test system: plasma levels of metabolic substrates; test: Phase Ib study in patients suffering from Fabry disease; type: in vivo; details: on top of enzyme replacement therapy
[3] = Gravimetric vapour sorption (GVS) analysis, hygroscopicity; type: physicochemical; details: crystalline form 1; 25° C.; mass change between 40% and 80% RH in first adsorption scan; European Pharmacopeia 8.0 classification
Description: Gravimetric Vapour Sorption (GVS) Analysis
Measurements were performed on a multi sample instrument SPS-100n (Projekt Messtechnik, Ulm, Germany) operated in stepping mode at 25° C. The sample was allowed to equilibrate at 40% RH before starting a pre-defined humidity program (40-0-95-0-95-40% RH, steps of 5% ΔRH and with a maximal equilibration time of 24 hours per step were applied. About 20 to 30 mg of each sample was used. The hygroscopic classification is done according to the European Pharmacopeia 8.0, e.g., slightly hygroscopic: increase in mass is less than 2% and equal to or greater than 0.2% mass/mass; hygroscopic: increase in mass is less than 15% and equal to or greater than 2% mass/mass. The mass change between 40% relative humidity and 80% relative humidity in the first adsorption scan is considered.

[4] = Thermogravimetric analysis (TGA); type: physicochemical; details: crystalline form 1; in the range 31.5 to 140° C.
Description: Thermogravimetric Analysis (TGA)
TGA data were collected on a Mettler Toledo STARe System (TGA851e module and STAR software version 9.20) equipped with a 34-position auto-sampler. Typically, about 5 mg of a sample, in an automatically pierced aluminium pan, was heated at 10° C. min^−1, unless stated otherwise, from 30° C. to 250° C. A nitrogen purge at 10 ml min^−1 was maintained over the sample.

Row | D10 [1] [μm] | D50 [1] [μm] | D90 [1] [μm] | Hygroscopicity [3] | TGA mass loss [4] | Compound | plasma levels of metabolic substrates thought to be related to the development of the disease [2]
1 | 7 | 22 | 42 | – | – | CCCCN1C[C@H](O)[C@@H](O)[C@@H](O)[C@H]1CO [Reference Example 3, (2R,3S,4R,5S)-1-butyl-2-(hydroxymethyl)piperidine-3,4,5-triol] | –
2 | – | – | – | Not hygroscopic | Mass loss of <0.1% in the range | CCCCN1C[C@H](O)[C@@H](O)[C@@H](O)[C@H]1CO [COMPOUND, (2R,3S,4R,5S)-1-butyl-2-(hydroxymethyl)piperidine-3,4,5-triol] | marked decrease
3 | 7 | 57 | 138 | – | – | CCCCN1C[C@H](O)[C@@H](O)[C@@H](O)[C@H]1CO [Example 2, (2R,3S,4R,5S)-1-butyl-2-(hydroxymethyl)piperidine-3,4,5-triol] | –
